According to patent publication US10457665B2, “1,4-di-(4-methylthiophenyl)-3-phtaloylazetidine-2-one and the derivatives thereof” (Universite De Nantes, priority 2015, dated 2019):

Experiments:
[1] = test system: obese C57BL/6 mice; assay: Glucose tolerance test after oral treatment simultaneously with food; format: in vivo, mouse; details: 28 days, administered at the same time as the meal
Procedure: (§1) In order to evaluate the long-term effects of the treatment on blood glucose control, glucose tolerance was evaluated at the end of the treatment period. The mice received an intraperitoneal injection of glucose (2 g/kg) then blood glucose was measured at times t=0, t=15 min, t=30 min, t=45 min, t=60 min, t=90 min, and t=120 min post-glucose injection using a My Life Pura blood glucose monitor (Ypsomed, Paris, France).

[2] = test system: liver, subcutaneous and visceral adipose tissue of obese mice; assay: Gene expression of markers (RT-PCR) in liver and adipose tissues after oral treatment with food; format: in vivo, mouse
Procedure: Total messenger RNA (mRNA) extraction was carried out with Tri-Reagent (Euromedex, France) and consecutive synthesis of complementary DNA (cDNA) was carried out from 1 μg of mRNA with the Bio-Rad iScripttm Reverse Transcription super mix kit (Bio-Rad, France). Gene expression was evaluated by semi-quantitative real-time reverse transcription-polymerase chain reaction (RT-PCR). The primers used, described below, were selected using the Primer3Plus software (http://www.bioinformatics.nl/cgi-25 bin/primer3plus/primer3plus.cgi) and synthesized by MWG-Biotech. Semi-quantification of gene expression was obtained by taking into account the efficacy of each PCR and standardization with the reporter gene TATA box-binding protein (TBP).
The impact of the treatment on endocannabinoid system activity is evaluated by measuring the gene expression 1) of receptors CB1R and CB2R 2) of the endocannabinoid synthesis enzyme, N-acyl phosphatidylethanolamine phospholipase D (NAPE-PLD) and 3) of the endocannabinoid degradation enzyme, fatty acid amide hydrolase (FAAH).
Fatty acid synthase (FAS), stearoyl-CoA desaturase 1 (SCD-1) and glycerol-phosphate acyl-transferase (GPAT2) are enzymes whose expression variations reflect lipogenic activity.
Glucose-6-phosphatase (G6P) and the glucose transporters GLUT2 and GLUT4 in the liver are used herein as neoglucogenesis markers.
F4/80 is a mature macrophage marker.
Tumour necrosis factor-alpha (TNF-a) is a proinflammatory cytokine affecting the regulation of numerous biological processes such as immune functions, cell differentiation and energy metabolism.

[3] = test system: obese C57BL/6 mice; assay: OGTT before and after 30-day chronic treatment; format: in vivo, mouse; details: obese mice after 30 days of treatment, 10 mg/kg
Procedure: In order to evaluate the long-term effects of the treatment on blood glucose control, glucose tolerance (OGTT) and insulin sensitivity (ITT) were evaluated pre- and post-treatment. Thus, for the OGTT the mice were force-fed glucose (2 g/kg), and for the ITT the mice received an i.p. injection of insulin (0.5 IU/kg). In both cases, blood glucose was measured at times t=0, t=15 min, t=30 min, t=45 min, t=60 min, t=90 min, and t=120 min post-glucose ingestion using a Contour®TS blood glucose monitor (ref. 81574201, Bayer HealthCare) and reactive strips (ref. 81574274, Bayer HealthCare).

[4] = biological target: T1, CB1R (pcDNA3.1-mCB1) (Mus musculus, UniProt P47746); assay: GloSensor cAMP assay in CB1R-transfected HEK293T/17 cells; format: cell-based; details: HEK293T/17 cells transfected with mCB1, forskolin 1 μM, FIG. 2
T1 construct: expressed in transfected cells; host or cells: HEK293T/17 (ATCC), transient transfection with FuGENE HD
T1 sequence (P47746 whole entry): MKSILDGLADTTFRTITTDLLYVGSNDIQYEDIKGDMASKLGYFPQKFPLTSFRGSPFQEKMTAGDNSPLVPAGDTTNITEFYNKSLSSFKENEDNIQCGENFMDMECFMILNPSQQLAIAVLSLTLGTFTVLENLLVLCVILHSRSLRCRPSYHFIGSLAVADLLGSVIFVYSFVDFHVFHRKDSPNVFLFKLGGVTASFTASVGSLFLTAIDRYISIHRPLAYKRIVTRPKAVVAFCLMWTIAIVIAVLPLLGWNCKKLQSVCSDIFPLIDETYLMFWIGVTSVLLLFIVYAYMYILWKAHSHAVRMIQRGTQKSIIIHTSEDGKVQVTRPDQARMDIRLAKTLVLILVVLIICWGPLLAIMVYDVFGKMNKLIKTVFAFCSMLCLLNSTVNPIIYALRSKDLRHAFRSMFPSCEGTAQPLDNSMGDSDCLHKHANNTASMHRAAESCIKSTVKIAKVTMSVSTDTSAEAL
Procedure: HEK293T/17 (ATCC) cells were cultured in DMEM 10% FCS, then seeded at 30000 cells/well in 96-well plates. After 24 h, the cells were subjected to transient transfection by FuGENE HD (Promega) by pcDNA3.1-mCB1 (50 ng) and pGlo (100 ng) plasmids with or without pertussis toxin (PTX). For the control assays, the cells were transfected with empty pcDNA3 (EV) and pGlo vectors with or without PTX. At 48 h (24 h post-transfection), the cells were loaded for 2 h with 2% GloReagent in CO2-independent medium with 10% FCS (80 μL/well).
The cells were then treated by adding, at t=0, 10 μL/well of Forskolin (FSK) 1 μM final, in order to increase the basal cAMP concentration. The kinetics of appearance of cAMP was monitored for 10 minutes. At t=10, the molecules to be tested were added and the cAMP variations measured for 20 minutes. The light signal was measured in RLU and is expressed as % response relative to the signal read at t=10 min (FSK1 μM). Sigmoidal curves were obtained by measurement at t=10 min after addition of the molecule to be tested (thus t=20 min total) of the percentage of light signal as a function of molecule concentration. The 4PL regression was carried out using the Sigma Plot software and made it possible to obtain an EC50 (1 experiment, n=3).

[5] = test system: liver, subcutaneous and visceral adipose tissue of obese mice; assay: Gene expression of markers (RT-PCR) in liver and adipose tissues after oral treatment with food; format: in vivo, mouse; remark: listed apart in the source
[6] = test system: obese C57BL/6 mice; assay: Glucose tolerance test after 43-day oral treatment with low-fat diet; format: in vivo, mouse; details: 43 days, orally 10 mg/kg once per day
Procedure: as §1

[7] = test system: obese C57BL/6 mice; assay: Food intake, body weight and body composition (EchoMRI) during 30-day chronic treatment; format: in vivo, mouse; details: obese mice, 10 mg/kg i.p. daily, 30 days
Excerpt: In order to determine the long-term effects of the molecules of interest, C57BL/6 mice made obese by means of a high-sucrose, high-fat diet (HSHF: 30% crude fat, 33.5% carbohydrates; ref. E15126-34; ref. E15126-34, SSNIFF, Soest, Germany) for 20 weeks. These mice then received daily an i.p. injection of rimonabant, JM-00.266 (i.e., compound IA) or vehicle for a period of 30 days. In parallel, weight and food intake were monitored every two days following the beginning of the treatment.
The long-term effect of the treatment on body composition was measured using an EchoMRI™ scanner allowing non-invasive analysis of fat mass, lean mass and body fluid composition by nuclear magnetic resonance (NMR) on the live animal without anaesthesia.

SMILES: CSc1ccc(C2C(N3C(=O)c4ccccc4C3=O)C(=O)N2c2ccc(SC)cc2)cc1 (stereo not drawn) [JM-00.266, trans-1,4-di-(4-methylthiophenyl)-3-N-phthaloyl-azetidine-2-one]
- glucose tolerance versus vehicle [1]: better glucose tolerance
- TNF-a expression ([2]; adipose tissue): trend towards the reduction
- expression of FAS ([2]; adipose tissue): reduction
- expression of CB R ([2]; any of the tissues tested): not modified
- expression of FAAH ([2]; any of the tissues tested): not modified
- expression of GPAT ([2]; liver): reduction
- expression of SCD-1 ([2]; liver): reduction
- F4/80 expression ([2]; liver and adipose tissues): clearly decreased
- CB2R expression ([2]; tissues of treated animals): lower
- expression of NAPE-PLD ([2]; tissues tested, 28 d oral with food): reduction
- basal blood glucose [3]: significant improvement
- glucose tolerance (OGTT 2 g/kg) [3]: significant improvement
- cAMP concentrations in the absence of agonist (AEA) [4]: increased
- G6P expression [5]: reduction
- GLUT4 expression [5]: reduction
- glucose tolerance versus VEH+LF and VEH+HF [6]: better glucose tolerance
- body weight relative to control mice [7]: does not decrease
- food intake compared with control mice [7]: not altered
